According to patent publication US20240317689A1, “POTASSIUM CHANNEL MODULATOR, COMPOSITION AND APPLICATION” (NEUSHEN THERAPEUTICS (SHANGHAI) CO., LTD, priority 2021, published 2024):

Target: T1, KCNQ2/3 potassium ion channel (Homo sapiens, UniProt O43525+O43526)
T1 construct: expressed in transfected cells; host or cells: CHO cells (hKCNQ-CHO)
Experiment: KCNQ2/3 potassium ion channel activation assay (whole-cell patch clamp, hKCNQ-CHO cells)
Type: cell-based
Settings: for activation at 0.05 µM: test concentration 0.05 μM; for activation at 0.05 µM / activation at 3 µM: read-out: Enhancment % (current enhancement multiple)
Method: Example 64: KCNQ2/3 Potassium Ion Channel Activation Assay
hKCNQ-CHO cells were cultured at 37° C. in a humidified environment of 5% CO2.
• 2.1. Extracellular fluid (mM): NaCl 145, KCl 4, CaCl2 2, MgCl2 1, Glucose 10, HEPES 10. The pH value of the extracellular fluid was adjusted to 7.4 with NaOH, and the osmotic pressure was adjusted to about 295 mOsm. • 2.2. Intracellular fluid (mM (mmol/L)): KOH 31.25, KCl 120, EGTA 10, MgCl2 1.75, CaCl2 5.374, HEPES 10, Na-ATP 4. The pH value of the intracellular fluid was adjusted to 7.4 with HCl, and the osmotic pressure was adjusted to about 285 mOsm. • 2.3. The extracellular fluid should be prepared once a week, and the intracellular fluid should be stored at −20° C. after preparation.
The model positive reference compound Retigabine (RTG) was dissolved with 100% DMSO and configured as a 10 mM working solution. The test compounds were dissolved with 100% DMSO and configured as a 10 mM working solution. The final concentration of DMSO in the test solution should be less than 0.3%.
Whole-cell patch clamp was performed at room temperature. The electrical signals recorded with the EPC 10 USB amplifier (HEKA Elektronik, Germany) were filtered by a 3 kHz low-pass filter, and finally recorded in PatchMaster 2×90.5 software (HEKA Elektronik, Germany). At this step, the quality control standard was that the cell high-resistance sealing was greater than 500 MOhms, and the detection current was greater than 0.4 nA.
The recording electrodes were pulled out and polished with a vertical puller (NARISHIGE PC-10, Japan) using a borosilicate glass capillary (GC150tF-10, Harvard Apparatus Co., UK). At this step, the quality control standard was that the electrode resistance was between 2 MΩ and 5 MΩ.
During the recording process of the whole-cell patch clamp, a continuous perfusion system (BT100-2J, LongerPump, China) was used to continuously perfuse the extracellular fluid. The perfusion system was installed on the stage of an upright microscope (FN-S2N, Nikon, Japan), and the perfusion head was manually positioned under the microscope.
The voltage command for detecting the amplitude of hKCNQ current was as follows: the cell stepped from the clamping potential of −80 mV to −30 mV, and held for 1500 ms; and then the clamping voltage was lowered to −120 my and held for 500 ms; finally, the voltage returned to the clamping potential of −80 mV. The detection voltage command was repeated every 15,000 milliseconds, and the command was continuously executed during the compound test. The quality control standard for compound action stability was the current amplitude under 5 consecutive voltage commands, and the coefficient of variation of the current amplitude was <5%.
Data analysis was performed using PatchMaster 2×90.5 software (HEKA Elektronik, Germany) and Excel 2013 (Microsoft, USA) software. For each cell's patch clamp recording, the amplitude of the hKCNQ channel current (Itest) corresponding to the test compound concentration should be obtained. The enhanced channel current was obtained by subtracting the cell's original channel current (Icontrol) from Itest and dividing by Icontrol to obtain the current enhancement multiple. That is, the current enhancement multiple (Enhancment %)=(Itest −Icontrol)/Icontrol[…].

activation at 0.05 µM	activation at 3 µM (test concentration 3 μM)	Enhancment % (activation activity on KCNQ2/3 potassium ion channel) (test concentration 3 μM, numeric value)	Structure (SMILES)
< 50%	> 100%		Cc1cc(N2CCCc3cc(OC(F)F)ccc3C2)cc(C)c1NC(=O)CC(C)(C)C [Compound 005, N-(4-(7-(difluoromethoxy)-1,3,4,5-tetrahydro-2H-benzo[c]azepin-2-yl)-2,6-dimethylphenyl)-3,3-dimethylbutanamide]
< 50%	50 to 100%		CC1=CCN(c2cc(C)c(NC(=O)CC(C)(C)C)c(C)c2)Cc2ccc(F)cc21 [Compound 028, N-(4-(7-fluoro-5-methyl-1,3-dihydro-2H-benzo[c]azepin-2-yl)-2,6-dimethylphenyl)-3,3-dimethylbutanamide]
	> 100%		Cc1cc(N2CCCc3cc(OCC(F)(F)F)ccc3C2)cc(C)c1NC(=O)CC(C)(C)C [Compound 007, N-(2,6-dimethyl-4-(7-(2,2,2-trifluoroethoxy)-1,3,4,5-tetrahydro-2H-benzo[c]azepin-2-yl)phenyl)-3,3-dimethylbutanamide]
	> 100%		Cc1cc(N2CCCc3cc(OC/C=C/C(F)(F)F)ccc3C2)cc(C)c1NC(=O)CC(C)(C)C [Compound 050, (E)-N-(2,6-dimethyl-4-(7-((4,4,4-trifluorobut-2-en-1-yl)oxy)-1,3,4,5-tetrahydro-2H-benzo[c]azepin-2-yl)phenyl)-3,3-dimethylbutanamide]
< 50%	50 to 100%		Cc1cc(N2CCC(C)(C)c3ccccc3C2)cc(C)c1NC(=O)CC(C)(C)C [Compound 017, N-(4-(5,5-dimethyl-1,3,4,5-tetrahydro-2H-benzo[c]azepin-2-yl)-2,6-dimethylphenyl)-3,3-dimethylbutanamide]
	50 to 100%		Cc1c(NC(=O)CC(C)(C)C)ccc(N2CCCc3cc(F)ccc3C2)c1F [Compound 029, N-(3-fluoro-4-(7-fluoro-1,3,4,5-tetrahydro-2H-benzo[c]azepin-2-yl)-2-methylphenyl)-3,3-dimethylbutanamide]
	> 100%		Cc1cc(N2CCCc3cc(OC4CCCCC4)c(F)cc3C2)cc(C)c1NC(=O)CC(C)(C)C [Compound 045, N-(4-(7-(cyclohexyloxy)-8-fluoro-1,3,4,5-tetrahydro-2H-benzo[c]azepin-2-yl)-2,6-dimethylphenyl)-3,3-dimethylbutanamide]
	> 100%		Cc1cc(N2CCCc3cc(OCCC(F)(F)F)ccc3C2)cc(C)c1NC(=O)CC(C)(C)C [Compound 058, N-(2,6-dimethyl-4-(7-(3,3,3-trifluoropropoxy)-1,3,4,5-tetrahydro-2H-benzo[c]azepin-2-yl)phenyl)-3,3-dimethylbutanamide]
	> 100%		Cc1cc(N2CCCc3cc(F)c(F)cc3C2)c(Cl)c(C)c1NC(=O)CC(C)(C)C [Compound 048, N-(3-chloro-4-(7,8-difluoro-1,3,4,5-tetrahydro-2H-benzo[c]azepin-2-yl)-2,6-dimethylphenyl)-3,3-dimethylbutanamide]
	> 100%		Cc1cc(N2CCCc3cc(OC4CCC(C(F)(F)F)CC4)ccc3C2)cc(C)c1NC(=O)CC(C)(C)C (stereo not drawn) [Compound 059, N-(2,6-dimethyl-4-(7-((4-(trifluoromethyl)cyclohexyl)oxy)-1,3,4,5-tetrahydro-2H-benzo[c]azepin-2-yl)phenyl)-3,3-dimethylbutanamide]
	> 100%		Cc1cc(N2CCCc3cc(OCC4(C(F)(F)F)CC4)ccc3C2)cc(C)c1NC(=O)CC(C)(C)C [Compound 054, N-(2,6-dimethyl-4-(7-((1-(trifluoromethyl)cyclopropyl)methoxy)-1,3,4,5-tetrahydro-2H-benzo[c]azepin-2-yl)phenyl)-3,3-dimethylbutanamide]
	> 100%		Cc1cc(N2CCCc3cc(OC4CCCCC4)ccc3C2)cc(C)c1NC(=O)CC(C)(C)C [Compound 012, N-(4-(7-(cyclohexyloxy)-1,3,4,5-tetrahydro-2H-benzo[c]azepin-2-yl)-2,6-dimethylphenyl)-3,3-dimethylbutanamide]
	> 100%		Cc1cc(N2CCCc3cc(OCCCC(F)(F)C(F)(F)F)ccc3C2)cc(C)c1NC(=O)CC(C)(C)C [Compound 061, N-(2,6-dimethyl-4-(7-((4,4,5,5,5-pentafluoropentyl)oxy)-1,3,4,5-tetrahydro-2H-benzo[c]azepin-2-yl)phenyl)-3,3-dimethylbutanamide]
		41.39%	Cc1cc(N2CCCc3cc(F)ccc3C2)cc(C)c1NC(=O)CC(C)(C)C [a, reference compound]
	> 100%		Cc1cc(N2CCCc3cc(OC45CC(C(F)F)(C4)C5)ccc3C2)cc(C)c1NC(=O)CC(C)(C)C [Compound 051, N-(4-(7-((3-(difluoromethyl)bicyclo[1.1.1]pentan-1-yl)oxy)-1,3,4,5-tetrahydro-2H-benzo[c]azepin-2-yl)-2,6-dimethylphenyl)-3,3-dimethylbutanamide]
	> 100%		Cc1cc(N2CCCc3cc(OC4CC4)ccc3C2)cc(C)c1NC(=O)CC(C)(C)C [Compound 009, N-(4-(7-cyclopropoxy-1,3,4,5-tetrahydro-2H-benzo[c]azepin-2-yl)-2,6-dimethylphenyl)-3,3-dimethylbutanamide]
	> 100%		Cc1cc(N2CCCc3cc(OCCOCC(F)(F)F)ccc3C2)cc(C)c1NC(=O)CC(C)(C)C [Compound 056, N-(2,6-dimethyl-4-(7-(2-(2,2,2-trifluoroethoxy)ethoxy)-1,3,4,5-tetrahydro-2H-benzo[c]azepin-2-yl)phenyl)-3,3-dimethylbutanamide]
	> 100%		Cc1cc(N2CCCc3cc(OC4COC4)ccc3C2)cc(C)c1NC(=O)CC(C)(C)C [Compound 013, N-(2,6-dimethyl-4-(7-(oxetan-3-yloxy)-1,3,4,5-tetrahydro-2H-benzo[c]azepin-2-yl)phenyl)-3,3-dimethylbutanamide]
	50 to 100%		Cc1cc(N2CCCc3cc(F)ccc3C2)c(C)c(C)c1NC(=O)CC(C)(C)C [Compound 030, N-(4-(7-fluoro-1,3,4,5-tetrahydro-2H-benzo[c]azepin-2-yl)-2,3,6-trimethylphenyl)-3,3-dimethylbutanamide]
	> 100%		Cc1cc(N2CCNc3cc(F)ccc3C2)cc(C)c1NC(=O)CC(C)(C)C [Compound 023, N-(4-(8-fluoro-1,2,3,5-tetrahydro-4H-benzo[e][1,4]diazepin-4-yl)-2,6-dimethylphenyl)-3,3-dimethylbutanamide]
	> 100%		Cc1cc(N2CCCc3cc(S(C)(=O)=O)ccc3C2)cc(C)c1NC(=O)CC(C)(C)C [Compound 015, N-(2,6-dimethyl-4-(7-(methylsulfonyl)-1,3,4,5-tetrahydro-2H-benzo[c]azepin-2-yl)phenyl)-3,3-dimethylbutanamide]
	50 to 100%		Cc1cc(N2CCC3(CC3)c3cc(F)ccc3C2)cc(C)c1NC(=O)CC(C)(C)C [Compound 022, N-(4-(7-fluoro-3,4-dihydrospiro[benzo[c]azepine-5,1′-cyclopropan]-2(1H)-yl)-2,6-dimethylphenyl)-3,3-dimethylbutanamide]
< 50%	> 100%		Cc1cc(N2CC=Cc3cc(F)ccc3C2)cc(C)c1NC(=O)CC(C)(C)C [Compound 027, N-(4-(7-fluoro-1,3-dihydro-2H-benzo[c]azepin-2-yl)-2,6-dimethylphenyl)-3,3-dimethylbutanamide]

Structure (SMILES)	activation at 0.05 µM	activation at 3 µM (test concentration 3 μM)	Enhancment % (activation activity on KCNQ2/3 potassium ion channel) (test concentration 3 μM, numeric value)
Cc1cc(N2CCCc3cc(OC4CCC4)ccc3C2)cc(C)c1NC(=O)CC(C)(C)C [Compound 010, N-(4-(7-cyclobutoxy-1,3,4,5-tetrahydro-2H-benzo[c]azepin-2-yl)-2,6-dimethylphenyl)-3,3-dimethylbutanamide]	> 100%	> 100%	
CC[C@@H](C)Oc1cc2c(cc1F)CN(c1cc(C)c(NC(=O)CC(C)(C)C)c(C)c1)CCC2 [Compound 041, (R)—N-(4-(7-(sec-butoxy)-8-fluoro-1,3,4,5-tetrahydro-2H-benzo[c]azepin-2-yl)-2,6-dimethylphenyl)-3,3-dimethylbutanamide]		> 100%	
